Data as given in patent publication US4243812A, “Processes for the preparation of glyoxal-2-oxims” (Taiho Pharmaceutical Company, priority 1978, dated 1981).

Tests used:
carrageenin edema = assay: Anti-inflammatory activity (Carrageenin edema method); type: in vivo, rat (Wistar strain; conditions: 100 mg per kg oral, Wistar-strain male rats, 0.1 ml of 1% carrageenin s.c. left hind paw, edema weight after three hours, vs control group
Protocol: (2) Anti-inflammatory activity (Carrageenin edema method)
The compounds to be tested were suspended in 0.5% carboxymethyl cellulose solution, and the suspension was orally administrated in 100 mg per kg of Wistarstrain male rats having their weight range of 130 to 170 g which were forced to abstain from food overnight. These rats were then injected subcutaneously into their left hind paws each with 0.1 ml of a physiological NaCl solution having dissolved therein carrageen in 1% concentration. After three hours from said injection, the rats were killed, both hind legs were cut out and promptly weighed. There is assumed as weight of edema a value obtained by deducting a weight of untreated hind leg from that of the carrageenin injected hind leg of the rat. Inhibition ratio of a sample-administrated group to a control group has been sought. The control group was administrated only with 0.5% […] solution in the same manner.

[1] = system: acetic acid stretching symptom; assay: Analgesic activity (Acetic acid stretching method); type: in vivo, mouse (ddy-strain); conditions: 100 mg per kg oral, ddy-strain mice, 0.2 ml of 0.7% acetic acid intraperitoneal
Protocol: (3) Analgesic activity (Acetic acid stretching method)
After the compounds to be tested were orally administrated in 100 mg per kg of ddy-strain mice having their weight range of 20 to 25 g, 0.2 ml of 0.7% acetic acid was intra-peritoneally administrated to each animal to observe stretching symptom thereby having found the inhibition ratio (%).

[2] = Acute toxicity (LD50, oral, mice); conditions: mouse, in vivo, dd-strain male mice 20 to 25 g, fasted overnight, suspended in 0.5% carboxymethyl cellulose, observed seven days
Source text: The compounds to be tested were suspended in 0.5% carboxymethyl cellulose solution, and the suspension was orally administrated in variable amounts in response to the weights of dd-strain male mice having those ranging from 20 to 25 g which were forced to abstain from food overnight.

SMILES: Cc1cc(C(=O)C=NO)on1 [(3-Methylisoxazole-5-yl)glyoxal-2-oxim, (3-methylisoxazole-5-yl)glyoxal-2-oxim]
- Anti-inflammatory activity (Carrageenin edema method), inhibition ratio (carrageenin edema): 83%
- Analgesic activity (Stretching method), inhibition ratio [1]: 50%
- LD50 at 168 h [2]: 890 mg/kg

SMILES: O=C(C=NO)c1cc(-c2ccccc2)no1 [(3-Phenylisoxazole-5-yl)glyoxal-2-oxim, (3-phenylisoxazole-5-yl)glyoxal-2-oxim]
- Anti-inflammatory activity (Carrageenin edema method), inhibition ratio (carrageenin edema): 56%
- Analgesic activity (Stretching method), inhibition ratio [1]: 75%
- LD50 at 168 h [2]: 1690 mg/kg
